For test [1], the target named is T1, Thyrotropin-releasing hormone receptor 2 (Rattus norvegicus) (UniProt A6IZR3).
T1 sequence (whole entry): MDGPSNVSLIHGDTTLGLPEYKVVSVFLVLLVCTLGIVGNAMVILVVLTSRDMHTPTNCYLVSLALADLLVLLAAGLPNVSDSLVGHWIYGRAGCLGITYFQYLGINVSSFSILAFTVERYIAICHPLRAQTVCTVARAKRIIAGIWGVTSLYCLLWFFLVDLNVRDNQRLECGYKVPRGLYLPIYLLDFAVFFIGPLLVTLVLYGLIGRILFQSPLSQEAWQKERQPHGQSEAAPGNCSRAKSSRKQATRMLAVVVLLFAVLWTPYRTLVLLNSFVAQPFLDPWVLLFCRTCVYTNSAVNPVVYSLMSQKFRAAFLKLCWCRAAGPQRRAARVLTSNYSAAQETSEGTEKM
Kind of test: Displacement of [3H]3-methylhistidyl-TRH from rat recombinant TRH2 receptor expressed in […] cells up to 1 mM. The class given is cell-based. Background: Displacement assays read how much labelled ligand stays bound in the presence of the test substance.

The target of test [2] is T2, Thyrotropin-releasing hormone receptor 2 (Rattus norvegicus, UniProt A6IZR3).
T2 sequence (A6IZR3 whole entry): T1 sequence (whole entry)
Kind of test: Displacement of [3H]3-methylhistidyl-TRH from rat recombinant TRH2 receptor expressed in […] cells. It counts as cell-based.

The text below walks through data of ChEMBL document CHEMBL1150271, “Corymbones A and B, phloroglucinols with thyrotropin releasing hormone receptor 2 binding affinity from the flowers of Corymbia peltata” (J Nat Prod, 2008).

The source made the active and inactive calls. The rule behind the calls is not given here.

As for `Cc1c(O)cc(O)c(C(=O)CCc2ccccc2)c1O`, the result in test [1] was inactive.

The term IC50 denotes the point on the concentration scale where inhibition reaches its midpoint. In the case of `Cc1c(O)c(C(=O)CCc2ccccc2)c(O)c(C(CCc2ccccc2)C2=C(O)C(C)(C)C(=O)C(C)(C)C2=O)c1O` (centres undefined) [CORYMBONE A], the IC50 in test [2] was determined as 23 µM.

As for `NC(=O)[C@@H]1CCCN1C(=O)[C@H](Cc1cnc[nH]1)NC(=O)[C@@H]1CCC(=O)N1` [PROTIRELIN], the IC50 in test [2] was 23 µM.

As for `Cc1c(O)c(C(=O)CCc2ccccc2)c(O)c(C(CC(C)C)C2=C(O)C(C)(C)C(=O)C(C)(C)C2=O)c1O` (centres undefined) [CORYMBONE B], the IC50 in test [2] was 19 µM.
